Measurements taken from ChEMBL document CHEMBL4373679, “Overcoming synthetic challenges in targeting coenzyme A biosynthesis with the antimicrobial natural product CJ-15,801” (Medchemcomm, 2019).

Columns and labels:
Assay type in all cases: functional, organism-based
Plasmodium falciparum [1] = experiment: Antimalarial activity against Plasmodium falciparum infected in erythrocytes in presence of 1 uM pantothenic acid and TBA salt form by SYBR safe-based fluorescence assay
Plasmodium falciparum [2] = experiment: Antimalarial activity against Plasmodium falciparum infected in erythrocytes in presence of 100 uM pantothenic acid and TBA salt form by SYBR safe-based fluorescence assay
Plasmodium falciparum [3] = experiment: Antimalarial activity against Plasmodium falciparum infected in erythrocytes in presence of 1 uM pantothenic acid by SYBR safe-based fluorescence assay

Row | IC50 (Plasmodium falciparum [1]) | IC50 (Plasmodium falciparum [2]) | Structure (SMILES) | IC50 (Plasmodium falciparum [3])
1 | 25 µM | 25 µM | CC(C)(CO)[C@@H](O)C(=O)N/C=C/C(=O)O | 64 µM
2 | – | – | CCCC[N+](CCCC)(CCCC)CCCC [TETRABUTHYLAMMONIUM] | 5 µM
